What was measured:
Assay type in all cases: in vivo
SETVI Setaria viridis [1] = assay: Post-emergence herbicidal action against harmful plants; conditions: one-leaf stage, assessed visually after about 3 weeks vs untreated controls
Text: (§1) The abbreviations used for the harmful plants mean: • ABUTH Abutilon theophrasti ALOMY Alopecurus myosuroides • AVEFA Avena fatua AMARE Amaranthus retroflexus • CYPES Cyperus esculentus DIGSA Digitaria sanguinalis • ECHCG Echinochloa crus-galli HORMU Hordeum murinum • LOLMU Lolium multiflorum LOLRI Lolium rigidum • MATIN Matricaria inodora PHBPU Pharbitis purpurea • POLCO Polygonum convolvulus SETVI Setaria viridis • STEME Stellaria media VERPE Veronica persica • VIOTR Viola tricolor 2. Post-Emergence Herbicidal Action Against Harmful Plants Seeds of monocotyledonous and dicotyledonous weed and crop plants are laid out in sandy loam soil in wood-fiber pots, covered with soil and cultivated in a greenhouse under good growth conditions. 2 to 3 weeks after sowing, the test plants are treated at the one-leaf stage. The compounds of the invention, formulated in the form of wettable powders (WP) or as emulsion concentrates (EC), are then sprayed onto the green parts of the plants in the form of an aqueous suspension or emulsion at a water application rate equivalent to 600 to 800 l/ha, with addition of 0.2% wetting agent. After the test plants have been left to stand in the greenhouse under optimal growth conditions for about 3 weeks, the action of the preparations is assessed visually in comparison to untreated controls (herbicidal action in percent (%): 100% activity=the plants have died, 0% activity=like control plants). […] The tables below illustrate, in an illustrative manner, the post-emergence herbicidal action of the compounds of the invention, the herbicidal activity being stated in percent.

[2] = tested on: ALOMY Alopecurus myosuroides; assay: as above; conditions: one-leaf stage, assessed visually after about 3 weeks vs untreated controls
Text: as §1

[3] = tested on: POLCO Polygonum convolvulus; assay: as above; conditions: one-leaf stage, assessed visually after about 3 weeks vs untreated controls
Text: as §1

AVEFA Avena fatua = assay: as above; conditions: one-leaf stage, assessed visually after about 3 weeks vs untreated controls
Text: as §1

PHBPU Pharbitis purpurea [4] = assay: as above; conditions: 20 g/ha, one-leaf stage, assessed visually after about 3 weeks vs untreated controls
Text: as §1

[5] = tested on: DIGSA Digitaria sanguinalis; assay: as above; conditions: one-leaf stage, assessed visually after about 3 weeks vs untreated controls
Text: as §1

[6] = tested on: AMARE Amaranthus retroflexus; assay: as above; conditions: one-leaf stage, assessed visually after about 3 weeks vs untreated controls
Text: as §1

SETVI Setaria viridis [7] = assay: Pre-emergence herbicidal action against harmful plants; conditions: 80 g/ha, scored visually after 3 weeks vs untreated controls
Text: (§2) The abbreviations used for the harmful plants mean: • ABUTH Abutilon theophrasti ALOMY Alopecurus myosuroides • AVEFA Avena fatua AMARE Amaranthus retroflexus • CYPES Cyperus esculentus DIGSA Digitaria sanguinalis • ECHCG Echinochloa crus-galli HORMU Hordeum murinum • LOLMU Lolium multiflorum LOLRI Lolium rigidum • MATIN Matricaria inodora PHBPU Pharbitis purpurea • POLCO Polygonum convolvulus SETVI Setaria viridis • STEME Stellaria media VERPE Veronica persica • VIOTR Viola tricolor 1. Pre-Emergence Herbicidal Action Against Harmful Plants Seeds of monocotyledonous and dicotyledonous weed plants and crop plants are laid out in sandy loam soil in wood-fiber pots and covered with soil. The compounds of the invention, formulated in the form of wettable powders (WP) or as emulsion concentrates (EC), are then applied to the surface of the covering soil in the form of an aqueous suspension or emulsion at a water application rate equivalent to 600 to 800 l/ha, with addition of 0.2% wetting agent. After the treatment, the pots are placed in a greenhouse and kept under good growth conditions for the trial plants. The damage to the test plants is scored visually after a test period of 3 weeks by comparison with untreated controls (herbicidal activity in percent (%): 100% activity=the plants have died, 0% activity=like control plants). […] The tables below illustrate, in an illustrative manner, the post-emergence herbicidal action of the compounds of the invention, the herbicidal activity being stated in percent.

[8] = tested on: ALOMY Alopecurus myosuroides; assay: as above; conditions: 80 g/ha, scored visually after 3 weeks vs untreated controls
Text: as §2

[9] = tested on: POLCO Polygonum convolvulus; assay: as above; conditions: 80 g/ha, scored visually after 3 weeks vs untreated controls
Text: as §2

[10] = tested on: ECHCG Echinochloa crus-galli; assay: as above; conditions: scored visually after 3 weeks vs untreated controls
Text: as §2

PHBPU Pharbitis purpurea [11] = assay: as above; conditions: 80 g/ha, scored visually after 3 weeks vs untreated controls
Text: as §2

[12] = tested on: DIGSA Digitaria sanguinalis; assay: as above; conditions: scored visually after 3 weeks vs untreated controls
Text: as §2

[13] = tested on: AMARE Amaranthus retroflexus; assay: as above; conditions: scored visually after 3 weeks vs untreated controls
Text: as §2

MATIN Matricaria inodora [14] = assay: as above; conditions: scored visually after 3 weeks vs untreated controls
Text: as §2

[15] = tested on: ABUTH Abutilon theophrasti; assay: as above; conditions: 80 g/ha, scored visually after 3 weeks vs untreated controls
Text: as §2

MATIN Matricaria inodora [16] = assay: Post-emergence herbicidal action against harmful plants; conditions: one-leaf stage, assessed visually after about 3 weeks vs untreated controls
Text: as §1

[17] = tested on: ABUTH Abutilon theophrasti; assay: as above; conditions: one-leaf stage, assessed visually after about 3 weeks vs untreated controls
Text: as §1

VERPE Veronica persica = assay: as above; conditions: one-leaf stage, assessed visually after about 3 weeks vs untreated controls
Text: as §1

Compound | Post-emergence action at 20 g/ha against PHBPU in % (PHBPU Pharbitis purpurea [4]) | Post-emergence action at 20 g/ha against DIGSA in % [5] | Post-emergence action at 20 g/ha against AMARE in % [6] | Pre-emergence action at 80 g/ha against ALOMY in % [8] | Pre-emergence action at 80 g/ha against POLCO in % [9] | Pre-emergence action at 80 g/ha against ECHCG in % [10] | Pre-emergence action at 80 g/ha against PHBPU in % (PHBPU Pharbitis purpurea [11]) | Pre-emergence action at 20 g/ha against DIGSA in % [12] | Pre-emergence action at 80 g/ha against DIGSA in % [12] | Pre-emergence action at 20 g/ha against AMARE in % [13] | Pre-emergence action at 80 g/ha against AMARE in % [13] | Pre-emergence action at 20 g/ha against MATIN in % (MATIN Matricaria inodora [14]) | Pre-emergence action at 80 g/ha against MATIN in % (MATIN Matricaria inodora [14]) | Pre-emergence action at 80 g/ha against ABUTH in % [15] | other results
Cc1c(C(=O)Nc2nnnn2C)cc(Cl)c(C(F)(F)F)c1C(=O)NC1CC1 [Example 1-85] | 80% | 90% | 80% | 80% | 80% | 80% | 80% | 100% | 100% | 100% | 100% | 80% | 100% | 100% | Post-emergence action at 20 g/ha against SETVI in % (SETVI Setaria viridis [1]): 80%; Post-emergence action at 20 g/ha against ALOMY in % [2]: 80%; Post-emergence action at 20 g/ha against POLCO in % [3]: 80%; Post-emergence action at 20 g/ha against AVEFA in % (AVEFA Avena fatua): 80%; Pre-emergence action at 80 g/ha against SETVI in % (SETVI Setaria viridis [7]): 100%
CCN(C)C(=O)c1c(C(F)(F)F)cc(F)c(C(=O)Nc2nnnn2CC)c1C [Example 2-96] | 90% | 90% | 90% | 80% | 80% | 80% | 80% | 80% | 90% | 100% | 100% | 80% | 90% | 90% | Post-emergence action at 5 g/ha against AMARE in % ([6]; 5 g/ha): 80%; Post-emergence action at 20 g/ha against MATIN in % (MATIN Matricaria inodora [16]): 80%; Post-emergence action at 20 g/ha against ABUTH in % [17]: 80%; Post-emergence action at 20 g/ha against VERPE in % (VERPE Veronica persica): 80%

Reference: patent US20230150953A1, “SUBSTITUTED ISOPHTHALIC ACID DIAMIDES” (Bayer Aktiengesellschaft, priority 2020, published 2023)
